Laboratory results as given in the NIST ThermoML archive (doi:10.1021/je200508x).

Assay: molar heat capacity at constant pressure
Settings: 101.33 kPa, Crystal, Vacuum adiabatic calorimetry

C=C(C)C(=O)[O][Sb]([O]C(=O)C(=C)C)([c]1ccccc1)([c]1ccccc1)[c]1ccccc1 [triphenyl-.lambda.5-stibanediyl bis(2-methylacrylate)]
Settings | molar heat capacity at constant pressure [J/K/mol]
5 K | 2.01
5.69 K | 2.9
6.38 K | 4.02
7.1 K | 5.41
7.71 K | 6.68
8.27 K | 7.96
8.8 K | 9.25
9.02 K | 9.78
9.38 K | 10.7
9.91 K | 12
10 K | 12.3
10.45 K | 13.4
10.84 K | 14.3
11.3 K | 15.5
11.73 K | 16.5
12.1 K | 17.4
13.05 K | 19.9
13.67 K | 21.6
14.66 K | 24.5
15 K | 25.4
15.64 K | 27.4
16.62 K | 30.16
17.59 K | 33.15
18.52 K | 36.15
19.07 K | 37.69
19.58 K | 39.2
20 K | 40.48
21.68 K | 45.73
24.61 K | 55.52
25 K | 56.85
26.89 K | 62.82
28.78 K | 68.55
30 K | 72.23
31.21 K | 75.9
31.81 K | 78.04
33.66 K | 83.66
33.76 K | 84.46
35 K | 88.24
36.21 K | 92.11
38.67 K | 99.54
40 K | 103.4
41.14 K | 106.6
43.6 K | 113.8
45 K | 117.5
46.06 K | 120.5
48.52 K | 127.2
50 K | 131.7
50.62 K | 133.3
52.35 K | 138.3
56.62 K | 149.3
57.11 K | 150.1
59.23 K | 155.6
60 K | 157.4
61.69 K | 161.4
64.15 K | 167.4
66.61 K | 173.5
68.65 K | 178.9
70 K | 181.9
70.8 K | 183.9
73.27 K | 189.7
75.28 K | 193.9
77.44 K | 199
79.9 K | 204.6
80 K | 204.8
82.19 K | 210
84.03 K | 214.2
84.36 K | 214.5
86.03 K | 217.9
86.44 K | 219.2
88.12 K | 222.6
88.53 K | 223.9
90 K | 226.3
90.24 K | 227.1
90.62 K | 227.4
92.99 K | 232
95.37 K | 236.4
97.74 K | 240.6
100 K | 245.1
100.11 K | 245.2
102.48 K | 250
104.85 K | 254
107.22 K | 258.4
109.45 K | 262.8
110 K | 263.4
111.82 K | 266.7
114.3 K | 271.1
116.58 K | 275.1
118.96 K | 279
120 K | 280.8
121.34 K | 283
123.72 K | 286.8
126.1 K | 290.5
128.48 K | 294.9
130 K | 297.4
130.59 K | 298.4
132.7 K | 302.2
135.08 K | 306.4
139.6 K | 313.7
140 K | 314.6
141.3 K | 316.8
143.4 K | 321
145.22 K | 324.6
147.6 K | 328.9
149.99 K | 333.6
150 K | 333.6
152.36 K | 347.2
154.75 K | 352.6
157.14 K | 362.4
159.53 K | 372.2
160 K | 372.6
161.92 K | 369.5
164.34 K | 355.3
166.76 K | 356.4
169.15 K | 360
170 K | 361.2
171.6 K | 363.4
173.9 K | 366.7
175.85 K | 369.5
178.25 K | 372.5
180 K | 375.2
180.65 K | 376.2
183.05 K | 379.6
184.24 K | 380.9
187.35 K | 385.8
190 K | 389.6
190.9 K | 391.1
194.06 K | 395.5
197.17 K | 400.2
200 K | 404.7
200.73 K | 406
204.87 K | 412.6
209.58 K | 420
210 K | 420.5
214.29 K | 427
218.98 K | 434.2
220 K | 436.3
223.67 K | 442.1
228.35 K | 449.1
230 K | 451.7
232.58 K | 456.1
236.01 K | 461
240 K | 466.6
240.06 K | 466.4
244.71 K | 473.3
249.36 K | 480
250 K | 481.2
252.66 K | 484.9
256.66 K | 491.7
260 K | 496.3
261.29 K | 497.9
265.91 K | 505.5
270 K | 511.1
270.5 K | 511.7
275.08 K | 518.7
277.79 K | 522.4
280 K | 525.9
281.19 K | 527.2
284.56 K | 532.8
287.93 K | 538.8
290 K | 541.9
291.28 K | 544
294.6 K | 550.2
297.91 K | 555.7
298.15 K | 555.9
300 K | 559.1
301.2 K | 561.8
304.48 K | 566.7
307.74 K | 572.1
310 K | 576.3
310.99 K | 577.4
314.22 K | 583.3
317.43 K | 588.2
320 K | 592
320.63 K | 592.8
323.81 K | 597.8
327.25 K | 602.8
330 K | 607
330.43 K | 607
332.9 K | 611.4
334.78 K | 614.7
340 K | 621
350 K | 635
360 K | 649
370 K | 664
380 K | 679
390 K | 694
400 K | 709
